Results on three molecules are retold here after patent US5266561A, “Treatment of type 2 diabetes mellitus” (Amylin Pharmaceuticals, Inc., priority 1991, dated 1993).

Experiment [1] addresses T1, insulin receptor on red blood cells.
T1 construct: endogenous in cells; host or cells: red blood cells
Put plainly: Displacement of insulin from its receptor on red blood cells. Format: binding.

The test system of experiment [2] is rat islet cells. Nature of the experiment: Glucose-stimulated insulin secretion from isolated rat islets of Langerhans. Format: cell-based. Conditions: glucose 10 mmol/L; for RELATIVE INSULIN SECRETION INHIBITION: reduction from control. How it is done: All experiments were performed by known methods used in experimental practice. See, e.g., Lacey P E, and Kostianovsky M, Method for the isolation of intact islets of Langerhans from the rat Dancreas. Diabetes 1967; 16:35-39.
Briefly, rats were killed, and islets of Langerhans were isolated from their pancreases. Experiments were performed either with freshly isolated islets or after overnight incubation of islets (23 h) in standard culture medium and conditions at 37° C. […] Incubation of islets for these experiments was carried out in standard Krebs-Heinsleit buffer, and it was verified that the addition of the 1.0 mmol/L citrate buffer had no effect on the pH of the incubation medium. Stimulation of islets was carried out at the standard stimulatory glucose concentration of 10 mmol/L.
Production of insulin is expressed as μU/islet/h. All experiments were performed with five replicates per point. The integrity of the islet response was assessed by comparing the responses after stimulation of different aliquots of islets by two and ten mmol/L glucose, respectively, and the strength of the inhibitory response was judged against that induced by 1 μg/ml (650 nmol/L) somatostatin. […] See Arimura A. Biomed res 1981; 2:233-257. […] See Petterson M, Ahren B, Bottcher G, Sundler F, Endocrinology 1986; 119:865-869.
The results are shown in TABLE 5 below and all results are expressed as ± standard error of the mean (s.e.m.). The significance of differences between the means of groups is assessed by the t-test. The result of stimulation by 10 mmol/L glucose is compared with the results of stimulation at 2 mmol/L glucose. In all other experimental conditions, the significance of the inhibitory effect is measured against the effect of 10 mmol/L glucose alone.

In experiment [3] the test system is rat islet cells. Particulars: literature statement; cited from earlier work.

Where no end group is shown, it is not given here.

On to “amylin: 37-residue peptide from pancreatic amyloid of Type 2 diabetics; source (synthetic or native) not stated at these places (KCNTATCATQRLANFLVHSSNNFGAILSSTNVGSNTY; Islet amyloid polypeptide; UniProt P10997 34-70, looked up)”, for which the “displacing insulin from its receptor on red blood cells” value in experiment [1] was “not capable of significantly displacing insulin”.
Regarding `C[C@H](N)C(=O)NCC(=O)N[C@H]1CSSC[C@@H](C(=O)O)NC(=O)[C@H](CO)NC(=O)[C@H]([C@@H](C)O)NC(=O)[C@H](Cc2ccccc2)NC(=O)[C@H]([C@@H](C)O)NC(=O)[C@H](CCCCN)NC(=O)[C@H](Cc2c[nH]c3ccccc23)NC(=O)[C@H](Cc2ccccc2)NC(=O)[C@H](Cc2ccccc2)NC(=O)[C@H](CC(N)=O)NC(=O)[C@H](CCCCN)NC1=O` [Somatostatin, reference compound], in experiment [2] (650 nmol/L), the “INSULIN PRODUCTION Mean value” worked out at 44 μU/islet/hr and the “RELATIVE INSULIN SECRETION INHIBITION” value is 45%. For the same molecule, the “inhibition of the insulin secretory response of islet B-cells to glucose” value in experiment [3] is listed as “known, potent inhibitor”.
As to “CGRP 27-37 (FVPTNVGSKAF; ends and bridges not checked; UniProt P06881 109-119, looked up, fragment)”, the “INSULIN PRODUCTION Mean value” was determined as 36 μU/islet/hr in experiment [2] (10 nmol/L), 36 μU/islet/hr in experiment [2] (100 nmol/L) and 46 μU/islet/hr in experiment [2] (1000 nmol/L). Moreover, the “RELATIVE INSULIN SECRETION INHIBITION” value in experiment [2] (10 nmol/L) amounted to 55%; in experiment [2] (100 nmol/L), 55%; in experiment [2] (1000 nmol/L), 42%.
